The values below come from publication PMC9977398, “Next-generation membrane-active glycopeptide antibiotics that also inhibit bacterial cell division” (Chemical Science, 2023).

The subject of one assay is MRSA. Description: Antagonization assay with Ac2KAA or lipoteichoic acid. The assay is classed as cell-based, S. aureus. The note with it: for change in MIC in presence of lipoteichoic acid: 100 μg/mL lipoteichoic acid as competing ligand. How it is done: Ac2KAA can act as a competitive ligand to the target of glycopeptide antibiotics and therefore antagonize antibacterial activity. In the presence of 500 μM of Ac2KAA, the activity of VanQAmC10 (8) was reduced by 2-fold. However, the MIC of vancomycin increased from 0.6 μM to >30 μM ([…] increase in MIC) in presence of the same amount of Ac2KAA. The 2-fold reduction in the activity of VanQAmC10 (8) accounts for the loss of activity due to D-Ala–D-Ala binding. This implied that it acted through additional mechanisms that are independent of Ala-D-Ala binding. The presence of the positive charge in VanQAmC10 (8) could result in interactions with the negatively charged components of the bacterial cell wall like teichoic acid. C-terminal trimethyl ammonium modified vancomycin derivative has been reported to bind to teichoic acid.[32] […]
Antagonization of antibacterial activity of AAV-qC10 was determined by addition of 500 μM
N,N՛-diacetyl–L-Lys–D-Ala–D-Ala or 100 μg/mL of lipoteichoic acid to serial dilutions of the […]

The next assay deals with wild-type E. coli. Description: Light microscopy of wild-type E. coli (lysis). The assay is classed as cell-based. The note with it: VanQAmC10 25 μM, vancomycin 34 μM (Fig. 5A). The protocol: Over 240 minutes, E. coli treated with VanQAmC10 (at 25 μM), gradually grow bulky before finally lysing (ESI Video ^†). It punctured the cell, causing the cytoplasm to leak out as extrusions on the surface of the bacteria after which the cells flattened and disintegrated.
Fig. 5 Examination of E. coli cells treated with vancomycin, cephalexin and VanQAmC10 to study the effect on bacterial membrane integrity and cell division. (A) Light microscopy of wild-type E. coli upon treatment with vancomycin (34 μM), and VanQAmC10 (25 μM); (B) light and fluorescence microscopy in GFP-FtsZ expressing E. coli to assess morphological changes and localization of FtsZ post-treatment with VanQAmC10 (15 μM) for 40 min; (C) delocalization of GFP-FtsI in GFP-FtsI expressing E. coli through fluorescence microscopy and morphological changes through light microscopy upon treatment with vancomycin (34 μM), cephalexin (22 μM) and VanQAmC10 (10 μM); (D) light microscopy to assess morphological changes in E. coli MG1655 ΔamiAC mutant, when untreated and treated with vancomycin (3 μM) and VanQAmC10 (2 μM). Black arrows indicate morphological aberrations.

Assay [1] relates to GFP-FtsI expressing E. coli. The assay can be described thus: GFP-FtsI localization and morphology. In kind it is cell-based. The note with it: for localization of GFP-FtsI: vancomycin 34 μM, VanQAmC10 10 and 15 μM. The protocol:
FtsI or PBP-3 is the only transpeptidase required for bacterial cell division and localizes to the septal ring.[37] It regulates the degree of cross-linking and coordinates the division process. GFP-tagged FtsI producing E. coli cells were treated with vancomycin (at 34 μM) and VanQAmC10 (at 10 μM and 15 μM; Fig. 5C) and then examined under the microscope. […] Upon treatment with 10 μM of VanQAmC10, larger phenotypes of variable sizes are observed with shape defects. Some cells appear filamentous like in the case of cephalexin. The GFP-FtsI protein appears as green fluorescent spots delocalized across the cell in 60% of the cells visualized. At a higher concentration of 15 μM, bulkier cells with more distorted shapes than those at 10 μM were observed (Fig. S5 ^†). […]
resuspended in prewarmed BMM media. 1:1 BAC light dye was then added to the bacterial suspension and incubated for 5 minutes. The fluorescence in the GFP and Texas red channels was then observed under the microscope. The experiments were performed three times independently and the images are representative of results from three independent experiments.
B. subtilis 1981 GFP-MinD was cultured overnight in BMM.8 Cells were then inoculated in xylose containing BMM instead of glucose to an OD500 of 0.1 to induce expression of the GFP-MinD fusion protein. Upon reaching an OD500 of 0.35, the cells were treated with test compounds at the PEC (vancomycin, VanQAmC10, VanQbiph) and 0.75 μg/mL (nisin) for 15 min. 0.5 μl of nonfixed, non-immobilized samples of the culture were imaged immediately in fluorescent mode (Olympus microscope with a U-LH100HGAPO burner and a U-RFL-T power supply). The experiments were performed three times independently and the images are representative of results from three independent experiments.
GFP-FtsI and GFP-FtsZ localization in E. coli […]
About 6 μl of sample was immobilized on 1% agarose pad . DIC and fluorescence images were obtained at different time intervals using Nikon Eclipse Ti Microscope equipped with Nikon DS-U3 camera through Plan Apo 100×/1.40 oil objective. […]

Structures are written as SMILES. Where only a bound is given, the exact number is not on record here.

For `CCCCCCCCCCNC(=O)C[N+](C)(C)CCCNC(=O)C1NC(=O)C2NC(=O)C(NC(=O)C3NC(=O)C(CC(N)=O)NC(=O)C(NC(=O)C(CC(C)C)NC)C(O)c4ccc(c(Cl)c4)Oc4cc3cc(c4OC3OC(CO)C(O)C(O)C3OC3CC(C)(N)C(O)C(C)O3)Oc3ccc(cc3Cl)C2O)c2ccc(O)c(c2)-c2c(O)cc(O)cc21` (stereo not shown) [VanQAmC10 (8)], in the assay on MRSA, the “change in MIC in presence of lipoteichoic acid” value is recorded as “no change in the MIC”. In addition, in the assay with MRSA (500 μM Ac2KAA, MRSA), the “fold reduction of activity in presence of Ac2KAA” value was determined as 2 fold. Moreover, in the assay with wild-type E. coli, the “effect on E. coli cells (microscopy)” value is on record as “completely lysed the cells”. In addition, the “cells with delocalized GFP-FtsI” value in assay [1] (10 μM) stood at 60%. Further, the “localization of GFP-FtsI” value in assay [1] is “mislocalizes the cell division protein, FtsI”.
`CN[C@H](CC(C)C)C(=O)N[C@H]1C(=O)N[C@@H](CC(N)=O)C(=O)N[C@H]2C(=O)N[C@H]3C(=O)N[C@H](C(=O)N[C@H](C(=O)O)c4cc(O)cc(O)c4-c4cc3ccc4O)[C@H](O)c3ccc(c(Cl)c3)Oc3cc2cc(c3O[C@@H]2O[C@H](CO)[C@@H](O)[C@H](O)[C@H]2O[C@H]2C[C@](C)(N)[C@H](O)[C@H](C)O2)Oc2ccc(cc2Cl)[C@H]1O` [Vancomycin, reference compound]: in the assay with MRSA, the “change in MIC in presence of lipoteichoic acid” value was “no change in the MIC”. The “fold increase in MIC in presence of Ac2KAA” value in the assay with MRSA (500 μM Ac2KAA, MRSA) is on record as over 40 fold. Moreover, in the assay on MRSA (Staphylococcus aureus, 500 μM Ac2KAA, MRSA, read-out: MIC in presence of Ac2KAA), the MIC is over 30 µM. In the assay with wild-type E. coli, the “effect on E. coli cells (microscopy)” value was “did not affect the cells”. For the same compound, the “localization of GFP-FtsI” value in assay [1] was “localization of FtsI at the septum”.
